Results: article PMC9415947 (Pharmaceuticals, 2022)

What was measured:
PI3Kγ = target: T1, PI3Kγ (Homo sapiens, UniProt P48736); assay: In vitro PI3K inhibition assay (ADP-Glo kinase assay), PI3Kγ; format: biochemical; settings: for IC50: mean of two independent experiments; for Fold Selectivity γ/δ: ratio IC50 PI3Kγ / IC50 PI3Kδ
T1 construct: purchased Merck Millipore
Protocol: (§1) All compounds were tested in a biochemical assay that measured the inhibition of phosphatidylinositol […] production by PI3K isoforms using the ADP-Glo kinase assay (Promega). In addition, the effects of synthesized compounds on B cell proliferation were measured.
(§2) The potency and selectivity of compounds were assessed by measuring the ability of PI3K kinases to convert ATP to ADP during an enzymatic reaction in the presence of decreasing doses of tested compounds. The experiments were carried out using the ADP-Glo kinase assay kit (Promega), according to the manufacturer’s protocol. PI3Kα, PI3Kβ, PI3Kδ, and PI3Kγ have been purchased from Merck Millipore and phosphoinositol-4,5-bisphosphate (PIP2) lipid vesicles with phosphoserine from ThermoFisher Scientific were used as a substrate in the enzymatic reaction.
(§3) After the reaction, the ADP-Glo reagent and the kinase detection reagent were added sequentially with 40 min of incubation (25 °C, 600 rpm) after adding each reagent. Finally, the luminescence intensity was measured and the IC50 was calculated using GraphPad Prism 7 software. The presented results are the mean value of IC50 from at least two independent experiments.

PI3Kδ = target: T2, PI3Kδ (Homo sapiens, UniProt O00329); assay: In vitro PI3K inhibition assay (ADP-Glo kinase assay), PI3Kδ; format: biochemical; settings: mean of two independent experiments
T2 construct: purchased Merck Millipore
T2 sequence (O00329 whole entry, looked up): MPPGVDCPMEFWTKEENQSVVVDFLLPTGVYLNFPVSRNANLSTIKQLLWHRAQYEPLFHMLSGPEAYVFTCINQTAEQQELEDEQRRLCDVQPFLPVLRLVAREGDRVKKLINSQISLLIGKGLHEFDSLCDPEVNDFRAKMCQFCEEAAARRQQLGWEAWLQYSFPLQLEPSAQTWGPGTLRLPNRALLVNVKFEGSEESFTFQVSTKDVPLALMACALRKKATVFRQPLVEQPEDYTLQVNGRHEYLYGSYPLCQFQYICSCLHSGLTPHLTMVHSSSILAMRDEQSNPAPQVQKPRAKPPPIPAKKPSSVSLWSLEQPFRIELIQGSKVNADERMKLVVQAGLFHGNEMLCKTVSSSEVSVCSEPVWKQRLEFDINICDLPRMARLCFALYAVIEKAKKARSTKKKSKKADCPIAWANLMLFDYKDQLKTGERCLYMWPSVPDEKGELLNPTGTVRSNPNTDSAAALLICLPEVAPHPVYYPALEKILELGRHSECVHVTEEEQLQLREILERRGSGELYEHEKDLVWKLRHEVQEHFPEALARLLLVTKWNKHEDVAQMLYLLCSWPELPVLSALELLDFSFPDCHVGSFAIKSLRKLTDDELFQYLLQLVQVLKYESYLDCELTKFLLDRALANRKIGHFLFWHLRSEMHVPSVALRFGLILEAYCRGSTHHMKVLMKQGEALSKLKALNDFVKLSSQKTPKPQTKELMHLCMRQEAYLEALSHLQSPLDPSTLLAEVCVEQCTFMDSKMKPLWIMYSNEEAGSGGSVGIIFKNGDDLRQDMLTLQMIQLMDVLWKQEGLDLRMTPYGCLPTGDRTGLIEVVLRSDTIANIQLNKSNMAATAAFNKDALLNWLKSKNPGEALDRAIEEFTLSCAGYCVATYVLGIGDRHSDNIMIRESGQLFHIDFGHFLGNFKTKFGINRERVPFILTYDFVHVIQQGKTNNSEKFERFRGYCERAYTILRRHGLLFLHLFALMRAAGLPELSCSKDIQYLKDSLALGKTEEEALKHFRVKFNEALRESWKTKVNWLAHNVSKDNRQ
Protocol: as §1, §2, §3

T1 sequence (P48736 whole entry): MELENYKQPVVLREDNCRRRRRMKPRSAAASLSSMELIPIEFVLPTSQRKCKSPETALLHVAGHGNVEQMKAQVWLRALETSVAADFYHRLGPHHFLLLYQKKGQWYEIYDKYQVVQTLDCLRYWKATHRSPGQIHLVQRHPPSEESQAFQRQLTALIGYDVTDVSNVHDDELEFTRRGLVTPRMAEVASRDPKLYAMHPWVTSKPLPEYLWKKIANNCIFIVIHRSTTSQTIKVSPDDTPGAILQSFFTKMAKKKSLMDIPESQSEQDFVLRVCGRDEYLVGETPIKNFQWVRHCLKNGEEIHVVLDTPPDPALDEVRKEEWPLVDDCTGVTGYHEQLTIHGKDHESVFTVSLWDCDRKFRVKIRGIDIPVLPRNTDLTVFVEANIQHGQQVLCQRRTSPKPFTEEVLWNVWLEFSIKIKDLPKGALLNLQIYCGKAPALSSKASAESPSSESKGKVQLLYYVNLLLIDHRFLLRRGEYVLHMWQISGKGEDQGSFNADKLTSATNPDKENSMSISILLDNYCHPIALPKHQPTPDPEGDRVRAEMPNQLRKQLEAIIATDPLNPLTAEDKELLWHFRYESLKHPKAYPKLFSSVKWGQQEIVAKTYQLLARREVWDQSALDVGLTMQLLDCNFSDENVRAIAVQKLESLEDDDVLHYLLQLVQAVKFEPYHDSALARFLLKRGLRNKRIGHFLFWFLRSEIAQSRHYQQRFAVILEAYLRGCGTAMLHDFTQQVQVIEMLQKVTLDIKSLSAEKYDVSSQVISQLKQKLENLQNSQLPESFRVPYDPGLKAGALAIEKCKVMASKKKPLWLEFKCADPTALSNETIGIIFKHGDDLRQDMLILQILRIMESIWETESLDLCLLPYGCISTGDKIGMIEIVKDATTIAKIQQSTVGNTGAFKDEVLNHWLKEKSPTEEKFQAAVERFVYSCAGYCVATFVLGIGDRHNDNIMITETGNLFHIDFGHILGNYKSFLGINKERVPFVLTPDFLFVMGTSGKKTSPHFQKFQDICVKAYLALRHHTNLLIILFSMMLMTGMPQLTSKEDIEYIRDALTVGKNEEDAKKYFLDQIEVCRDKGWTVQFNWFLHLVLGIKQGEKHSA

Row | Compound | IC50 (PI3Kγ) | Fold Selectivity γ/δ (PI3Kγ) | IC50 (PI3Kδ)
1 | FC(F)c1nc2ccccc2n1-c1cc(N2CCOCC2)n2nc(CN3CCOCC3)cc2n1 [Compound 23, 2-(difluoromethyl)-1-[7-(morpholin-4-yl)-2-(morpholin-4-ylmethyl)pyrazolo[1,5-a]pyrimidin-5-yl]-1H-1,3-benzimidazole] | 1380 nM | 10 | 135 nM
2 | C[C@@H]1COCCN1Cc1cc2nc(-n3c(C(F)F)nc4ccccc43)cc(N3CCOCC3)n2n1 [Compound 25, 2-(difluoromethyl)-1-(2-{[(3R)-3-methylmorpholin-4-yl]methyl}-7-(morpholin-4-yl)pyrazolo[1,5-a]pyrimidin-5-yl)-1H-1,3-benzimidazole] | 1970 nM | 3.0 | 647 nM
3 | CC(C)(C)N1CCN(Cc2cc3nc(-n4c(C(F)(F)F)nc5ccccc54)cc(N4CCOCC4)n3n2)CC1 [Compound 9, 1-{2-[(4-tert-butylpiperazin-1-yl)methyl]-7-(morpholin-4-yl)pyrazolo[1,5-a]pyrimidin-5-yl}-2-(trifluoromethyl)-1H-benzimidazole] | 135000 nM | 149 | 907 nM
4 | OC1CCN(Cc2cc3nc(-n4c(C(F)F)nc5ccccc54)cc(N4CCOCC4)n3n2)CC1 [Compound 34, 1-({5-[2-(difluoromethyl)-1H-1,3-benzimidazol-1-yl]-7-(morpholin-4-yl)pyrazolo[1,5-a]pyrimidin-2-yl}methyl)piperidin-4-ol] | 4320 nM | 7.7 | 561 nM
5 | CC(C)(C(N)=O)N1CCN(C(=O)c2cc3nc(-n4c(C(F)F)nc5ccccc54)cc(N4CCOCC4)n3n2)CC1 [Compound 42, 2-(4-{5-[2-(difluoromethyl)-1H-1,3-benzimidazol-1-yl]-7-(morpholin-4-yl)pyrazolo[1,5-a]pyrimidine-2-carbonyl}piperazin-1-yl)-2-methylpropanamide] | 3590 nM | 48 | 74 nM
6 | CN1CCN(C(=O)c2cc3nc(-n4c(C(F)F)nc5ccccc54)cc(N4CCOCC4)n3n2)CC1 [Compound 56, 2-(difluoromethyl)-1-[2-(4-methylpiperazine-1-carbonyl)-7-(morpholin-4-yl)pyrazolo[1,5-a]pyrimidin-5-yl]-1H-1,3-benzimidazole] | 11400 nM |  | 768 nM
7 | FC(F)c1nc2ccccc2n1-c1cc(N2CCOCC2)n2nc(CN3CCC(F)(F)CC3)cc2n1 [Compound 28, 2-(difluoromethyl)-1-{2-[(4,4-difluoropiperidin-1-yl)methyl]-7-(morpholin-4-yl)pyrazolo[1,5-a]pyrimidin-5-yl}-1H-1,3-benzimidazole] | 1710 nM | 3.9 | 443 nM
8 | CNC(=O)CN1CCN(Cc2cc3nc(-n4c(C(F)F)nc5ccccc54)cc(N4CCOCC4)n3n2)CC1 [Compound 36, 2-[4-({5-[2-(difluoromethyl)-1H-1,3-benzimidazol-1-yl]-7-(morpholin-4-yl)pyrazolo[1,5-a]pyrimidin-2-yl}methyl)piperazin-1-yl]-N-methylacetamide] | 1250 nM | 20 | 63 nM
9 | CC(C)N1CCN(C(=O)c2cc3nc(-n4c(C(F)F)nc5ccccc54)cc(N4CCOCC4)n3n2)CC1 [Compound 57, 2-(difluoromethyl)-1-[7-(morpholin-4-yl)-2-[4-(propan-2-yl)piperazine-1-carbonyl]pyrazolo[1,5-a]pyrimidin-5-yl]-1H-1,3-benzimidazole] | 25500 nM |  | 271 nM
10 | CC(C)(O)C1CCN(C(=O)c2cc3nc(-n4c(C(F)F)nc5ccccc54)cc(N4CCOCC4)n3n2)CC1 [Compound 41] | 2480 nM | 25 | 101 nM
11 | N#CC1CCN(C(=O)c2cc3nc(-n4c(C(F)F)nc5ccccc54)cc(N4CCOCC4)n3n2)CC1 [Compound 51, 1-{5-[2-(difluoromethyl)-1H-1,3-benzimidazol-1-yl]-7-(morpholin-4-yl)pyrazolo[1,5-a]pyrimidine-2-carbonyl}piperidine-4-carbonitrile] | 1630 nM | 4.7 | 344 nM
12 | N#CC1CCN(Cc2cc3nc(-n4c(C(F)F)nc5ccccc54)cc(N4CCOCC4)n3n2)CC1 [Compound 32, 1-({5-[2-(difluoromethyl)-1H-1,3-benzimidazol-1-yl]-7-(morpholin-4-yl)pyrazolo[1,5-a]pyrimidin-2-yl}methyl)piperidine-4-carbonitrile] | 3150 nM | 16 | 192 nM
13 | O=C(c1cc2nc(-n3c(C(F)F)nc4ccccc43)cc(N3CCOCC3)n2n1)N1CCCC1CO (stereo not shown) [Compound 44, (1-{5-[2-(difluoromethyl)-1H-1,3-benzodiazol-1-yl]-7-(morpholin-4-yl)pyrazolo[1,5-a]pyrimidine-2-carbonyl}pyrrolidin-2-yl)methanol] | 2020 nM | 4.4 | 459 nM
14 | O[C@H]1CCN(Cc2cc3nc(-n4c(C(F)F)nc5ccccc54)cc(N4CCOCC4)n3n2)C1 [Compound 21, (3S)-1-({5-[2-(difluoromethyl)-1H-1,3-benzimidazol-1-yl]-7-(morpholin-4-yl)pyrazolo[1,5-a]pyrimidin-2-yl}methyl)pyrrolidin-3-ol] | 10900 nM | 11 | 956 nM
15 | CC(=O)NC1CCN(Cc2cc3nc(-n4c(C(F)F)nc5ccccc54)cc(N4CCOCC4)n3n2)CC1 [Compound 35, N-[1-({5-[2-(difluoromethyl)-1H-1,3-benzimidazol-1-yl]-7-(morpholin-4-yl)pyrazolo[1,5-a]pyrimidin-2-yl}methyl)piperidin-4-yl]acetamide] | 1500 nM | 3.4 | 445 nM
16 | CC1(O)CCN(Cc2cc3nc(-n4c(C(F)F)nc5ccccc54)cc(N4CCOCC4)n3n2)CC1 [Compound 30, 1-({5-[2-(difluoromethyl)-1H-1,3-benzimidazol-1-yl]-7-(morpholin-4-yl)pyrazolo[1,5-a]pyrimidin-2-yl}methyl)-4-methylpiperidin-4-ol] | 7550 nM | 12 | 615 nM
17 | CNC(=O)CN1CCN(C(=O)c2cc3nc(-n4c(C(F)F)nc5ccccc54)cc(N4CCOCC4)n3n2)CC1 [Compound 55, 2-(4-{5-[2-(difluoromethyl)-1H-1,3-benzimidazol-1-yl]-7-(morpholin-4-yl)pyrazolo[1,5-a]pyrimidine-2-carbonyl}piperazin-1-yl)-N-methylacetamide] | 2170 nM | 26 | 82 nM
18 | FC(F)c1nc2ccccc2n1-c1cc(N2CCOCC2)n2nc(CNC3CCOCC3)cc2n1 [Compound 27, N-({5-[2-(difluoromethyl)-1H-1,3-benzimidazol-1-yl]-7-(morpholin-4-yl)pyrazolo[1,5-a]pyrimidin-2-yl}methyl)oxan-4-amine] | 20500 nM | 11 | 1810 nM
19 | O=C(c1cc2nc(-n3c(C(F)F)nc4ccccc43)cc(N3CCOCC3)n2n1)N1CCOCC1 [Compound 46, 2-(difluoromethyl)-1-[7-(morpholin-4-yl)-2-(morpholine-4-carbonyl)pyrazolo[1,5-a]pyrimidin-5-yl]-1H-1,3-benzimidazole] | 8540 nM | 38 | 226 nM
20 | O=C(c1cc2nc(-n3c(C(F)F)nc4ccccc43)cc(N3CCOCC3)n2n1)N1CCC(N2CCOCC2)CC1 [Compound 52, 2-(difluoromethyl)-1-[7-(morpholin-4-yl)-2-[4-(morpholin-4-yl)piperidine-1-carbonyl]pyrazolo[1,5-a]pyrimidin-5-yl]-1H-1,3-benzimidazole] | 5950 nM | 65 | 92 nM
21 | NC(=O)C1CCN(C(=O)c2cc3nc(-n4c(C(F)F)nc5ccccc54)cc(N4CCOCC4)n3n2)CC1 [Compound 48, 1-{5-[2-(difluoromethyl)-1H-1,3-benzimidazol-1-yl]-7-(morpholin-4-yl)pyrazolo[1,5-a]pyrimidine-2-carbonyl}piperidine-4-carboxamide] | 2790 nM | 9 | 314 nM
22 | CC(C)N1CCN(Cc2cc3nc(-n4c(C(F)F)nc5ccccc54)cc(N4CCOCC4)n3n2)CC1 [Compound 38, 2-(difluoromethyl)-1-[7-(morpholin-4-yl)-2-{[4-(propan-2-yl)piperazin-1-yl]methyl}pyrazolo[1,5-a]pyrimidin-5-yl]-1H-1,3-benzimidazole] | 13300 nM | 351 | 38 nM
23 | O=C(c1cc2nc(-n3c(C(F)F)nc4ccccc43)cc(N3CCOCC3)n2n1)N1CCC(O)CC1 [Compound 53, 1-{5-[2-(difluoromethyl)-1H-1,3-benzimidazol-1-yl]-7-(morpholin-4-yl)pyrazolo[1,5-a]pyrimidine-2-carbonyl}piperidin-4-ol] | 2080 nM | 11 | 195 nM
24 | NC(=O)C1CCN(Cc2cc3nc(-n4c(C(F)F)nc5ccccc54)cc(N4CCOCC4)n3n2)CC1 [Compound 29, 1-({5-[2-(difluoromethyl)-1H-1,3-benzimidazol-1-yl]-7-(morpholin-4-yl)pyrazolo[1,5-a]pyrimidin-2-yl}methyl)piperidine-4-carboxamide] | 1860 nM | 7.7 | 240 nM
